Data taken from patent US9682931B2, “Aryloyl(oxy or amino)pentafluorosulfanylbenzene compound, pharmaceutically acceptable salt thereof, and prodrugs thereof” (UBE INDUSTRIES, LTD., priority 2013, dated 2017).
Converted amounts (≈) assume the structure as drawn.

Experiments:
[1] = tested on: HL60 (myelocytic leukemia); assay: Evaluation of anticancer action, cell proliferation inhibition (WST-8), HL60; type: cell-based; settings: Homo sapiens, HL-60, HL60, about 96 hours
Text: (§1) The cell proliferation inhibitory effects of a test substance (Compound 3) on various types of cancer cells were examined.
(§2) 1. Measuring Reagent and Analysis Software
(§3) WST-8 Kit (Cat. No. 260-96165 or 260-96162; manufactured by Kishida Chemical Co., Ltd.) for counting cell number
(§4) Software for graph making and measurement of GI50 value: XLfit 5.2 (ID Business Solutions Ltd.)
(§5) 2. Cells and Culture Conditions
(§6) Five types of cells and medium (the following Table) were used. The cells were obtained from the Research Resource Bank of the Human Sciences Foundation.
(§7) On the day when a sample was to be added, the sample was weighed and a medium for each type of cells was added so as to be 500 μg/mL. Sonication was performed while warming at 37° C. for 60 minutes to be dissolved. Then, filtration was performed by a 0.22 m-filter. The 500 μg/mL-solution was diluted with the medium for each type of cells to prepare 200 μg/mL, 60 μg/mL, 20 μg/mL, 6 μg/mL, 2 μg/mL, 0.6 μg/mL and 0.2 μg/mL solutions, which were specified as two-fold concentration test solutions (the final concentrations of the test substance were 250 µg/mL, 100 μg/mL, 30 μg/mL, 10 μg/mL, 3 μg/mL, 1 μg/mL, 0.3 μg/mL, […], respectively). […]
(§8) (8) Absorbance values at 450 nm and 650 nm were measured to calculate O.D. 450 and O.D. 650. […]
(§9) ODdrug-exposed wells: absorbance of a well containing a sample […]

[2] = biological target: T1, Topoisomerase I (Homo sapiens, UniProt P11387); assay: Topoisomerase I assay; type: biochemical; parameters: key to Inhibitory activity Topoisomerase I: ∘: Inhibitory activity is present; Δ: Weak inhibitory activity is present; x: No inhibitory activity is present
T1 sequence (P11387 1-765): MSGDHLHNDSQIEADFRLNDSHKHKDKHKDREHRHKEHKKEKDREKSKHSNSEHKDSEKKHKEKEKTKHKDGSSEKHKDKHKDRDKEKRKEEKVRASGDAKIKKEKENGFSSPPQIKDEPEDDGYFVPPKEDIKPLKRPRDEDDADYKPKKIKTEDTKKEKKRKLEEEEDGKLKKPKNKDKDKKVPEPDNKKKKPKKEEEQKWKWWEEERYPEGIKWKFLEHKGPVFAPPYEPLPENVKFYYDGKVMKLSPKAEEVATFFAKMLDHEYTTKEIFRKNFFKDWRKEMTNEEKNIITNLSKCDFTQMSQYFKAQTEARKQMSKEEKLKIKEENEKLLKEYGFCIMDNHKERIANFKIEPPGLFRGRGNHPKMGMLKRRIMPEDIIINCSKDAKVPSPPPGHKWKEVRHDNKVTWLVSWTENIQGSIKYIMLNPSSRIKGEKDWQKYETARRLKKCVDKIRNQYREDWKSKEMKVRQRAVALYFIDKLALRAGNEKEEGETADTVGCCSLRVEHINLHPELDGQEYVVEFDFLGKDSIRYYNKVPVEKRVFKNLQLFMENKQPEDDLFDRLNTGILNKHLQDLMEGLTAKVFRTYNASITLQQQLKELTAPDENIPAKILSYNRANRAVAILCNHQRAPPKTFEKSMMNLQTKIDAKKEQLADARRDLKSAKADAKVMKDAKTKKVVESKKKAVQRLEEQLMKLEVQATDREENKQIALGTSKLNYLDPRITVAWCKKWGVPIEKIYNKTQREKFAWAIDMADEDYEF
Protocol: The inhibitory action of a test substance (Compound 3) on Topoisomerase I and Topoisomerase II was examined.
Topoisomerase I (4 units) was subjected to the following assay performed in the assay conditions, which were determined by a preliminary examination, for a reaction time of 2 hours.
(1) An assay solution was prepared in accordance with the following table.

[3] = tested on: Hep G2 (liver cancer); assay: Evaluation of anticancer action, cell proliferation inhibition (WST-8), Hep G2; type: cell-based; settings: Homo sapiens, HepG2, Hep G2, about 72 hours
Text: as §1, §2, §3, §4, §5, §6, §7, §8, §9

O=C(Nc1ccc(S(F)(F)(F)(F)F)cc1)c1cc(O)c(O)c(O)c1 [Compound 3, 4-(3,4,5-trihydroxybenzoylamino)pentafluorosulfanylbenzene]
GI50 [1]: 1.7 µg/mL (≈ 4.58 µM) | Topoisomerase I inhibitory activity ([2]; 500 μg/mL): inhibitory activity was confirmed | Inhibitory activity Topoisomerase I ([2]; final concentration 0.5 μg/mL): x | Inhibitory activity Topoisomerase I ([2]; final concentration 5 μg/mL): x | Inhibitory activity Topoisomerase I ([2]; final concentration 50 μg/mL): x | Inhibitory activity Topoisomerase I ([2]; final concentration 500 μg/mL): ∘ | GI50 [3]: 9.8 µg/mL (≈ 26.4 µM)
